Experimental data reported in US20230092890A1, “1, 3, 4-Oxadiazole derivative compounds as histone deacetylase 6 inhibitor, and the pharmaceutical composition comprising the same” (Chong Kun Dang Pharmaceutical Corp., priority 2019, published 2023).

How the values were obtained:
HDAC6 human recombinant = target: T1, HDAC6 human recombinant (Homo sapiens, UniProt Q9UBN7); assay: HDAC enzyme activity inhibition (in vitro), HDAC6 assay; format: biochemical; conditions: samples at 0.1, 1, 10, 100 and 1000 nM; 37° C. 60 minutes; fluorescence Ex 390, Em 460; read-out: HDAC6 IC50
T1 construct: purchased Calbiochem 382180
T1 sequence (Q9UBN7 1-1215): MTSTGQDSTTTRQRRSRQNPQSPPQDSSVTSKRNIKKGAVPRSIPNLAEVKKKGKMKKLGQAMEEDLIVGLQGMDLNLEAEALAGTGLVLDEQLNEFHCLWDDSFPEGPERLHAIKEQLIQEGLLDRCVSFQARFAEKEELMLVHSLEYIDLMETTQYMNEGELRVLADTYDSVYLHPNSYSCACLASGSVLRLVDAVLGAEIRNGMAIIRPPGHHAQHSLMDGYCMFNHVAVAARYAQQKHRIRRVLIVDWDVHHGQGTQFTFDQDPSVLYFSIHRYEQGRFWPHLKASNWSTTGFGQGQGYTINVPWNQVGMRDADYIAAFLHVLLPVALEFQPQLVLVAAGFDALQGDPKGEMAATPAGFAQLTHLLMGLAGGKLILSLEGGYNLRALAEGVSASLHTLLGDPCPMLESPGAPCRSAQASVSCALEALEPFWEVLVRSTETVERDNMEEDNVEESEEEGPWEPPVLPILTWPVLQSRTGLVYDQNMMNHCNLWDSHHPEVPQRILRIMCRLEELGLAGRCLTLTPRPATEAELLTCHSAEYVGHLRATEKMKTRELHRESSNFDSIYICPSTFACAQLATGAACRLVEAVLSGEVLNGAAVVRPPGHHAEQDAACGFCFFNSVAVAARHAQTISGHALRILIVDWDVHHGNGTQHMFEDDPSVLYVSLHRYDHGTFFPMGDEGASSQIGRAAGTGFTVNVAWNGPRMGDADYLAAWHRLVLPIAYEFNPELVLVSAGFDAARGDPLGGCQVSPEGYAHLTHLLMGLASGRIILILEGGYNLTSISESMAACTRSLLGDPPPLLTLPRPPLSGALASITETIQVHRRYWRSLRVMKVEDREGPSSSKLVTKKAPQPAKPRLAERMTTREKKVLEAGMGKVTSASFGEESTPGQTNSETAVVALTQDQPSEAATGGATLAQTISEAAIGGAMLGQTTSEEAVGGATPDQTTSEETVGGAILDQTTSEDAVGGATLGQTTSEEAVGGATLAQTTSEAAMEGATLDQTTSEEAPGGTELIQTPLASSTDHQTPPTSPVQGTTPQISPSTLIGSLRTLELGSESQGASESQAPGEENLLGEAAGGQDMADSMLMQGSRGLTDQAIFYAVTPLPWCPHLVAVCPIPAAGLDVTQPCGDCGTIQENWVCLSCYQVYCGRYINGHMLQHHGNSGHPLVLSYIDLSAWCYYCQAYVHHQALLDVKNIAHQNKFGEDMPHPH
Summary of the method: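 HDAC6 human recombinant enzyme with fluorimetric substrate; […]. Reaction 60 min at 37° C, then developer 30 min at 37° C; fluorescence read at Ex 390/Em 460.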

HDAC1 = target: T2, HDAC1 (Homo sapiens, UniProt Q13547); assay: HDAC enzyme activity inhibition (in vitro), HDAC1 Fluorimetric Drug Discovery Assay Kit; format: biochemical; conditions: samples at 100, 1000 and 10000 nM; 37° C. 60 minutes; fluorescence Ex 390, Em 460; read-out: HDAC1 IC50
T2 construct: purchased Enzolifesciences BML-AK511
T2 sequence (Q13547 whole entry): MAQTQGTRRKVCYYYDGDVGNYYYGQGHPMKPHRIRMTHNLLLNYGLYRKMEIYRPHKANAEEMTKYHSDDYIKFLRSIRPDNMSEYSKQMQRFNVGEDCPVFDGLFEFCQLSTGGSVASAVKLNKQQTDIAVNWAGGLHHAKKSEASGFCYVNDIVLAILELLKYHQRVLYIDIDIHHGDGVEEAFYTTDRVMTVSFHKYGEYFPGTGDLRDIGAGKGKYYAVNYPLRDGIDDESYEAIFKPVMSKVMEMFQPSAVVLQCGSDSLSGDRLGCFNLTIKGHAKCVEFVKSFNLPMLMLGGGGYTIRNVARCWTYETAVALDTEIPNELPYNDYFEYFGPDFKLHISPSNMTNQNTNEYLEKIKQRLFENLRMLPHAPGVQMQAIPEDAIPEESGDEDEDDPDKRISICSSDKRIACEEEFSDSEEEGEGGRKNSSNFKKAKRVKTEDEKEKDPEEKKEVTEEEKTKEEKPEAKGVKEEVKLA
Summary of the method: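 Compounds at 100, 1000, 10000 nM (HDAC1) or 0.1, 1, 10, 100, 1000 nM (HDAC6); 37° C, 60 min; developer, 37° C, 30 min; fluorescence Ex 390/Em 460.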

| IC50 (HDAC6 human recombinant) [nM] | IC50 (HDAC1) [nM] | SMILES |
| --- | --- | --- |
| 554 | > 10000 | CC(=O)N1CCC(n2c(=O)n(Cc3ccc(-c4nnc(C(F)F)o4)cc3)c3ncccc32)CC1 [Compound 186, 1-(1-acetylpiperidine-4-yl)-3-(4-(5-(difluoromethyl)-1,3,4-oxadiazole-2-yl)benzyl)-1,3-dihydro-2H-imidazo[4,5-b]pyridine-2-one] |
| 64 | > 10000 | CC(=O)N1CCC(n2c(=O)n(Cc3ccc(-c4nnc(C(F)F)o4)cn3)c3ccccc32)CC1 [Compound 187, 1-(1-acetylpiperidine-4-yl)-3-((5-(5-(difluoromethyl)-1,3,4-oxadiazole-2-yl)pyridine-2-yl)methyl)-1,3-dihydro-2H-benzo[d]imidazole-2-one] |
| 37 | > 10000 | O=c1n(Cc2ccc(-c3nnc(C(F)F)o3)cc2F)c2cc(F)ccc2n1C1CCS(=O)(=O)CC1 [Compound 189, 3-(4-(5-(difluoromethyl)-1,3,4-oxadiazole-2-yl)-2-fluorobenzyl)-1-(1,1-dioxydotetrahydro-2H-thiopyran-4-yl)-5-fluoro-1,3-dihydro-2H-benzo[d]imidazole-2-one] |
| 46 | > 10000 | O=c1n(Cc2ccc(-c3nnc(C(F)F)o3)cc2)c2cc(F)ccc2n1C1CCS(=O)(=O)CC1 [Compound 190, 3-(4-(5-(difluoromethyl)-1,3,4-oxadiazole-2-yl)benzyl)-1-(1,1-dioxydotetrahydro-2H-thiopyran-4-yl)-5-fluoro-1,3-dihydro-2H-benzo[d]imidazole-2-one] |
| 37 | > 10000 | CS(=O)(=O)N1CCC(n2c(=O)n(Cc3ccc(-c4nnc(C(F)F)o4)cn3)c3c(F)cccc32)CC1 [Compound 191, 3-((5-(5-(difluoromethyl)-1,3,4-oxadiazole-2-yl)pyridine-2-yl)methyl)-4-fluoro-1-(1-(methylsulfonyl)piperidine-4-yl)-1,3-dihydro-2H-benzo[d]imidazole-2-one] |
| 79 | > 10000 | CS(=O)(=O)N1CCC(n2c(=O)n(Cc3ccc(-c4nnc(C(F)F)o4)cc3)c3cc(F)ccc32)CC1 [Compound 192, 3-(4-(5-(difluoromethyl)-1,3,4-oxadiazole-2-yl)benzyl)-5-fluoro-1-(1-(methylsulfonyl)piperidine-4-yl)-1,3-dihydro-2H-benzo[d]imidazole-2-one] |
| 48 | > 10000 | CS(=O)(=O)N1CCC(n2c(=O)n(Cc3ccc(-c4nnc(C(F)F)o4)cn3)c3cc(F)c(F)cc32)CC1 [Compound 193, 1-((5-(5-(difluoromethyl)-1,3,4-oxadiazole-2-yl)pyridine-2-yl)methyl)-5,6-difluoro-3-(1-(methylsulfonyl)piperidine-4-yl)-1,3-dihydro-2H-benzo[d]imidazole-2-one] |
| 84 | > 10000 | CS(=O)(=O)N1CCC(n2c(=O)n(Cc3ccc(-c4nnc(C(F)F)o4)cc3)c3cc(F)c(F)cc32)CC1 [Compound 194, 1-(4-(5-(difluoromethyl)-1,3,4-oxadiazole-2-yl)benzyl)-5,6-difluoro-3-(1-(methylsulfonyl)piperidine-4-yl)-1,3-dihydro-2H-benzo[d]imidazole-2-one] |
| 50 | > 10000 | CS(=O)(=O)N1CCC(n2c(=O)n(Cc3ccc(-c4nnc(C(F)F)o4)cn3)c3cc(C(F)(F)F)ccc32)CC1 [Compound 195, 3-((5-(5-(difluoromethyl)-1,3,4-oxadiazole-2-yl)pyridine-2-yl)methyl)-1-(1-(methylsulfonyl)piperidine-4-yl)-5-(trifluoromethyl)-1,3-dihydro-2H-benzo[d]imidazole-2-one] |
| 126 | > 10000 | CS(=O)(=O)N1CCC(n2c(=O)n(Cc3ccc(-c4nnc(C(F)F)o4)cc3F)c3cc(C(F)(F)F)ccc32)CC1 [Compound 196, 3-(4-(5-(difluoromethyl)-1,3,4-oxadiazole-2-yl)-2-fluorobenzyl)-1-(1-(methylsulfonyl)piperidine-4-yl)-5-(trifluoromethyl)-1,3-dihydro-2H-benzo[d]imidazole-2-one] |
| 235 | > 10000 | CC(=O)N1CCC(c2ccc3c(c2)n(C2CCN(C)CC2)c(=O)n3Cc2ccc(-c3nnc(C(F)F)o3)cn2)CC1 [Compound 197, 5-(1-acetylpiperidine-4-yl)-1-((5-(5-(difluoromethyl)-1,3,4-oxadiazole-2-yl)pyridine-2-yl)methyl)-3-(1-methylpiperidine-4-yl)-1,3-dihydro-2H-benzo[d]imidazole-2-one] |
| 195 | > 10000 | CN1CCC(n2c(=O)n(Cc3ccc(-c4nnc(C(F)F)o4)cn3)c3ccc(C4CCN(S(C)(=O)=O)CC4)cc32)CC1 [Compound 198, 1-((5-(5-(difluoromethyl)-1,3,4-oxadiazole-2-yl)pyridine-2-yl)methyl)-3-(1-methylpiperidine-4-yl)-5-(1-(methylsulfonyl)piperidine-4-yl)-1,3-dihydro-2H-benzo[d]imidazole-2-one] |
| 175 | > 10000 | CN1CCC(c2ccc3c(c2)n(C2CCN(C)CC2)c(=O)n3Cc2ccc(-c3nnc(C(F)F)o3)cn2)CC1 [Compound 199, 1-((5-(5-(difluoromethyl)-1,3,4-oxadiazole-2-yl)pyridine-2-yl)methyl)-3,5-bis(1-methylpiperidine-4-yl)-1,3-dihydro-2H-benzo[d]imidazole-2-one] |
| 40 | > 10000 | CS(=O)(=O)N1CCC(n2c(=O)n(Cc3ccc(-c4nnc(C(F)F)o4)cn3)c3ccc(Cl)cc32)CC1 [Compound 200, 5-chloro-1-((5-(5-(difluoromethyl)-1,3,4-oxadiazole-2-yl)pyridine-2-yl)methyl)-3-(1-(methylsulfonyl)piperidine-4-yl)-1,3-dihydro-2H-benzo[d]imidazole-2-one] |
| 70 | > 10000 | CS(=O)(=O)N1CCC(n2c(=O)n(Cc3ccc(-c4nnc(C(F)F)o4)cc3F)c3ccc(Cl)cc32)CC1 [Compound 201, 5-chloro-1-(4-(5-(difluoromethyl)-1,3,4-oxadiazole-2-yl)-2-fluorobenzyl)-3-(1-(methylsulfonyl)piperidine-4-yl)-1,3-dihydro-2H-benzo[d]imidazole-2-one] |
| 139 | > 10000 | CS(=O)(=O)N1CCC(n2c(=O)n(Cc3ccc(-c4nnc(C(F)F)o4)cc3)c3ccc(Cl)cc32)CC1 [Compound 202, 5-chloro-1-(4-(5-(difluoromethyl)-1,3,4-oxadiazole-2-yl)benzyl)-3-(1-(methylsulfonyl)piperidine-4-yl)-1,3-dihydro-2H-benzo[d]imidazole-2-one] |
| 105 | > 10000 | CS(=O)(=O)N1CCC(n2c(=O)n(Cc3ccc(-c4nnc(C(F)F)o4)cn3)c3ncccc32)CC1 [Compound 203, 3-((5-(5-(difluoromethyl)-1,3,4-oxadiazole-2-yl)pyridine-2-yl)methyl)-1-(1-(methylsulfonyl)piperidine-4-yl)-1,3-dihydro-2H-imidazo[4,5-b]pyridine-2-one] |
| 140 | > 10000 | CS(=O)(=O)N1CCC(n2c(=O)n(Cc3ccc(-c4nnc(C(F)F)o4)cc3F)c3ncccc32)CC1 [Compound 204, 3-(4-(5-(difluoromethyl)-1,3,4-oxadiazole-2-yl)-2-fluorobenzyl)-1-(1-(methylsulfonyl)piperidine-4-yl)-1,3-dihydro-2H-imidazo[4,5-b]pyridine-2-one] |
| 739 | > 10000 | CS(=O)(=O)N1CCC(n2c(=O)n(Cc3ccc(-c4nnc(C(F)F)o4)cc3)c3ncccc32)CC1 [Compound 205, 3-(4-(5-(difluoromethyl)-1,3,4-oxadiazole-2-yl)benzyl)-1-(1-(methylsulfonyl)piperidine-4-yl)-1,3-dihydro-2H-imidazo[4,5-b]pyridine-2-one] |
